Test results: article PMC7496096, “Functional Characterisation of ClpP Mutations Conferring Resistance to Acyldepsipeptide Antibiotics in Firmicutes” (Chembiochem, 2020)
Values after ≈ are worked out from the molar mass of the structure shown. Like-named read-outs stand apart in the source and are kept apart here. Positions of bridges follow the written chain, without caps; N, C: chain ends. Non-standard residues stand in square brackets, D forms with d. Residues, ends and D or L forms follow the SMILES beside them. *: point of attachment. Octatrienoyl(2E,4E,6E) = C/C=C/C=C/C=C/C(=O)*; Pro(4R-Me) = C[C@H]1CN[C@H](C(=O)O)C1; NMeA = CN[C@@H](C)C(=O)O; X1 = CCC/C=C/C(=O)*

Columns and labels:
E. faecalis ATCC 29212 = assay: microbe, parasite or virus in culture; assay type: cell-based, Enterococcus faecalis; settings: broth microdilution, Mueller-Hinton broth (without cation adjustment), CLSI, inoculum 5×10^4 CFU mL^−1, wild type
Protocol: (§1) Determination of antibacterial activity: ADEP1 was purified from the culture supernatant of S. hawaiiensis NRRL 15010 as described.4 ADEPs 2, 4, 7, 9 were custom synthesised by EMC Microcollections, Tübingen, or provided by AiCuris, Wuppertal, Germany. The minimal inhibitory concentration (MIC) was determined by broth microdilution in Mueller‐Hinton broth (without cation adjustment) according to the guidelines of the Clinical Laboratory Standards Institute (CLSI).69 The inoculum was set to 5×10^4 CFU mL^−1 to allow some distance to the determined spontaneous resistance frequencies. […] All other ADEPs were used from DMSO stock solutions kept at −20 °C.

S. pneumoniae G9A = assay type: cell-based, Streptococcus pneumoniae; settings: broth microdilution, Mueller-Hinton broth; wildtype
Protocol: as §1

B. subtilis 168 = assay: microbe, parasite or virus in culture; assay type: cell-based, Bacillus subtilis; settings: broth microdilution, Mueller-Hinton broth (without cation adjustment), CLSI, inoculum 5×10^4 CFU mL^−1, wild type
Protocol: as §1

[1] = Stability of dissolved compound; assay type: physicochemical; settings: dissolved in DMSO; reason for fresh dissolution before MIC determination
Protocol: as §1

E. faecalis 27159 = assay type: cell-based, Enterococcus faecalis; settings: broth microdilution, Mueller-Hinton broth; wildtype
Protocol: as §1

S. pyogenes RC2 = assay type: cell-based, Streptococcus pyogenes; settings: resistant clone of S. pyogenes Wacker; ClpP L46→P (ClpP core; α2)
Protocol: as §1
(§2) Screening for ADEP‐resistant mutants and determination of resistance rates: Single colonies of wild‐type strains grown on Mueller‐Hinton agar plates overnight were suspended in sterile saline and a final inoculum of 5×10^6 cells was spread on plates supplemented with different ADEP congeners at 4× and 10× the MIC. For B. subtilis strain 3xclpP, ADEP7‐containing Mueller‐Hinton agar plates were additionally supplemented with 1 mM IPTG. […] Mutations in the clpP gene of the respective isolated mutants were analysed by amplifying the clpP gene (and upstream promoter region) by PCR and sequencing of the resulting PCR amplicons (LGC genomics). Sequencing data were analysed by using SnapGene software (GSL Biotech).

S. pyogenes RC1 = assay type: cell-based, Streptococcus pyogenes; settings: resistant clone of S. pyogenes Wacker; Y insertion after N40 (ClpP core; α2)
Protocol: as §1, §2

S. pyogenes Wacker = assay type: cell-based, Streptococcus pyogenes; settings: broth microdilution, Mueller-Hinton broth; wildtype
Protocol: as §1

B. subtilis RC19 = assay type: cell-based, Bacillus subtilis; settings: resistant clone of B. subtilis 168; ClpP Y183→C (C-terminus; α7)
Protocol: as §1
(§3) Screening for ADEP‐resistant mutants and determination of resistance rates: Single colonies of wild‐type strains grown on Mueller‐Hinton agar plates overnight were suspended in sterile saline and a final inoculum of 5×10^6 cells was spread on plates supplemented with different ADEP congeners at 4× and 10× the MIC. For B. subtilis strain 3xclpP, ADEP7‐containing Mueller‐Hinton agar plates were additionally supplemented with 1 mM IPTG. Resistant colonies were counted after 24 h at 37 °C and colonies were randomly chosen for MIC determinations and sequencing. Mutations in the clpP gene of the respective isolated mutants were analysed by amplifying the clpP gene (and upstream promoter region) by PCR and sequencing of the resulting PCR amplicons (LGC genomics). Sequencing data were analysed by using SnapGene software (GSL Biotech).

B. subtilis RC16 = assay type: cell-based, Bacillus subtilis; settings: resistant clone of B. subtilis 168; ClpP I44→F (ClpP core; α2)
Protocol: as §1, §3

B. subtilis RC13 = assay type: cell-based, Bacillus subtilis; settings: resistant clone of B. subtilis 168; ClpP I93→STOP, premature stop
Protocol: as §1, §3

B. subtilis RC18 = assay type: cell-based, Bacillus subtilis; settings: resistant clone of B. subtilis 168; ClpP L190→S, ADEP binding site
Protocol: as §1, §3

B. subtilis RC14 = assay type: cell-based, Bacillus subtilis; settings: resistant clone of B. subtilis 168; ClpP G107→S (ClpP core)
Protocol: as §1, §3

B. subtilis RC17 = assay type: cell-based, Bacillus subtilis; settings: resistant clone of B. subtilis 168; ClpP D172→V, active site
Protocol: as §1, §3

B. subtilis RC15 = assay type: cell-based, Bacillus subtilis; settings: resistant clone of B. subtilis 168; ClpP G69→S (ClpP core)
Protocol: as §1, §3

[2] = test system: B. subtilis, Enterococcus faecium, E. faecalis, S. pneumoniae, and Streptococcus pyogenes; assay: Spontaneous resistance frequency, further Firmicutes; assay type: cell-based; settings: same range as the S. aureus resistance rates (10^−6)
Protocol: as §3

S. pneumoniae RC3 = assay type: cell-based, Streptococcus pneumoniae; settings: resistant clone of S. pneumoniae G9A; ClpP R171→H, oligomerisation sensor
Protocol: as §1, §3

S. pneumoniae RC2 = assay type: cell-based, Streptococcus pneumoniae; settings: resistant clone of S. pneumoniae G9A; ClpP START→I, no expression
Protocol: as §1, §3

S. pneumoniae RC1 = assay type: cell-based, Streptococcus pneumoniae; settings: resistant clone of S. pneumoniae G9A; ClpP A94→G (ClpP core; β4)
Protocol: as §1, §3

S. aureus 133 [3] = assay: microbe, parasite or virus in culture; assay type: cell-based, Staphylococcus aureus; settings: broth microdilution, Mueller-Hinton broth (without cation adjustment), CLSI, inoculum 5×10^4 CFU mL^−1, wild type
Protocol: as §1

S. aureus ATCC 29213 [4] = assay: microbe, parasite or virus in culture; assay type: cell-based, Staphylococcus aureus; settings: broth microdilution, Mueller-Hinton broth (without cation adjustment), CLSI, inoculum 5×10^4 CFU mL^−1, wild type
Protocol: as §1

E. faecalis RC2 = assay type: cell-based, Enterococcus faecalis; settings: resistant clone of E. faecalis 27159; ClpP H123→Q, active site
Protocol: as §1, §3

E. faecalis RC6 = assay type: cell-based, Enterococcus faecalis; settings: resistant clone of E. faecalis 27159; ClpP R147→H (equatorial interface; α5)
Protocol: as §1, §3

E. faecalis RC5 = assay type: cell-based, Enterococcus faecalis; settings: resistant clone of E. faecalis 27159; ClpP A180→V (C-terminus; α7)
Protocol: as §1, §3

E. faecalis RC7 = assay type: cell-based, Enterococcus faecalis; settings: resistant clone of E. faecalis 27159; ClpP G68→D (ClpP core)
Protocol: as §1, §3

E. faecalis RC4 = assay type: cell-based, Enterococcus faecalis; settings: resistant clone of E. faecalis 27159; ClpP S43→STOP, premature stop
Protocol: as §1, §3

E. faecalis RC1 = assay type: cell-based, Enterococcus faecalis; settings: resistant clone of E. faecalis 27159; ClpP G100→STOP (A96→V; M99→Y), premature stop
Protocol: as §1, §3

E. faecalis RC3 = assay type: cell-based, Enterococcus faecalis; settings: resistant clone of E. faecalis 27159; ClpP G74→D (ClpP core; α3)
Protocol: as §1, §3

E. faecalis RC8 = assay type: cell-based, Enterococcus faecalis; settings: resistant clone of E. faecalis 27159; ClpP D170→Y, oligomerisation sensor
Protocol: as §1, §3

S. aureus 133 [5] = assay: Spontaneous resistance rate on ADEP-containing agar; assay type: cell-based, Staphylococcus aureus; settings: ADEP exposure 4× MIC in Mueller-Hinton agar; 5×10^6 cells plated, colonies counted after 24 h at 37 °C
Protocol: as §3

S. aureus ATCC 29213 [6] = assay: as above; assay type: cell-based, Staphylococcus aureus; settings: ADEP exposure 4× MIC in Mueller-Hinton agar; 5×10^6 cells plated, colonies counted after 24 h at 37 °C
Protocol: as §3

S. aureus = assay: MIC against S. aureus, summary of Table 1; assay type: cell-based, Staphylococcus aureus; settings: text summary of Table 1, strain not named
Protocol: as §1

## C/C=C/C=C/C=C/C(=O)N[C@@H](Cc1ccccc1)C(=O)N[C@H]1COC(=O)[C@@H]2C[C@@H](C)CN2C(=O)[C@H](C)NC(=O)[C@H](C)N(C)C(=O)[C@@H]2CCCN2C1=O [ADEP1] ({Octatrienoyl(2E,4E,6E)}-FSP[NMeA]A[Pro(4R-Me)]; ester 2-C)
E. faecalis ATCC 29212
  MIC: 0.063 µg/mL (≈ 0.0876 µM)
S. pneumoniae G9A
  MIC: 0.12 µg/mL (≈ 0.167 µM)
B. subtilis 168
  MIC: 0.063 µg/mL (≈ 0.0876 µM)
[1]
  stability: rather unstable
E. faecalis 27159
  MIC: 0.12 µg/mL (≈ 0.167 µM)
S. pyogenes RC2
  MIC: >32 µg/mL
S. pyogenes RC1
  MIC: >32 µg/mL
S. pyogenes Wacker
  MIC: 0.12 µg/mL (≈ 0.167 µM)
B. subtilis RC19
  MIC: >64 µg/mL
B. subtilis RC16
  MIC: 8 µg/mL (≈ 11.1 µM)
B. subtilis RC13
  MIC: >64 µg/mL
B. subtilis RC18
  MIC: 16 µg/mL (≈ 22.3 µM)
B. subtilis RC14
  MIC: 0.5 µg/mL (≈ 0.696 µM)
B. subtilis RC17
  MIC: >64 µg/mL
B. subtilis RC15
  MIC: >64 µg/mL
[2]
  spontaneous resistance frequencies: in the same range
S. pneumoniae RC3
  MIC: >32 µg/mL
S. pneumoniae RC2
  MIC: >32 µg/mL
S. pneumoniae RC1
  MIC: >32 µg/mL
S. aureus 133 [3]
  MIC: 0.5 µg/mL (≈ 0.696 µM)
S. aureus ATCC 29213 [4]
  MIC: 1 µg/mL (≈ 1.39 µM)
E. faecalis RC2
  MIC: >64 µg/mL
E. faecalis RC6
  MIC: >64 µg/mL
E. faecalis RC5
  MIC: >64 µg/mL
E. faecalis RC7
  MIC: >64 µg/mL
E. faecalis RC4
  MIC: >64 µg/mL
E. faecalis RC1
  MIC: >64 µg/mL
E. faecalis RC3
  MIC: >64 µg/mL
E. faecalis RC8
  MIC: >64 µg/mL

## CCC/C=C/C(=O)N[C@@H](Cc1ccccc1)C(=O)N[C@H]1COC(=O)[C@@H]2CCCN2C(=O)[C@H](C)NC(=O)[C@H](C)N(C)C(=O)[C@@H]2CCCN2C1=O [ADEP7] (X1-FSP[NMeA]AP; ester 2-C)
E. faecalis ATCC 29212
  MIC: 2 µg/mL (≈ 2.94 µM)
B. subtilis 168
  MIC: 0.5 µg/mL (≈ 0.734 µM)
S. aureus 133 [5]
  Resistance rate: 4×10^−6
S. aureus ATCC 29213 [6]
  Resistance rate: 6×10^−7
S. aureus 133 [3]
  MIC: 4 µg/mL (≈ 5.88 µM)
S. aureus
  minimal inhibitory concentration (MIC) against S. aureus: 8 µg/mL (≈ 11.8 µM)

## C[C@H]1c2cccc(O)c2C(=O)C2=C(O)[C@]3(O)C(=O)C(C(N)=O)=C(O)[C@@H](N(C)C)[C@@H]3[C@@H](O)[C@@H]21 [Doxycycline, reference compound]
E. faecalis ATCC 29212; Enterococcus faecalis, ATCC29212, read-out: MIC
  MIC: 4 to 8 µg/mL (≈ 9 to 18 µM)
B. subtilis 168; Bacillus subtilis, 168, read-out: MIC
  MIC: 0.125 µg/mL (≈ 0.281 µM)
S. aureus 133 [3]; Staphylococcus aureus, 133, read-out: MIC
  MIC: 0.06 µg/mL (≈ 0.135 µM)
S. aureus ATCC 29213 [4]; Staphylococcus aureus, ATCC29213, read-out: MIC
  MIC: 0.06 µg/mL (≈ 0.135 µM)
